Results from publication PMC11270923 (BMC Chemistry, 2024).

Experiment: Thermodynamic dissolution properties from Van't Hoff and Gibbs equations
Format: physicochemical
Description: The Gibbs and […] equations were used to determine the thermodynamic parameters of dissolution. A mean harmonic temperature of 305.55 K was utilized for the calculations, which were based on a temperature range of 298.15 K to 313.15 K [35]. […] On the other hand, ΔHsolno can be calculated by plotting lnx1 versus 1/T-1/Thm which is called van’t Hoff plot:16 ΔHsolno=-R(∂lnx1/∂(1/T-1/Thm))P 17 ΔGsolno=-RThm×intercept
By solving Eqs. 16 and 17, we can determine the values of the parameters ΔHsolno and ΔGsolno . The standard molar entropy of dissolution, ΔSsolno , can then be calculated using the following equation [40–42]:18 ΔSsolno=ΔHsolno-ΔGsolno/Thm
The relative contributions of entropy and enthalpy to the standard molar Gibbs free energy of dissolution of ACP are explained by Eqs. 17, 18, as shown by the symbols ξH and ξTS , respectively:19 %ξH=ΔHsolno/ΔHsolno+TΔSsolno×100 20 %ξTS=TΔSsolno/ΔHsolno+TΔSsolno×100

[1] = water+[DEA]La w3=0.0000, mean temperature 305.55 K
[2] = water+[DEA]La w3=0.0200, mean temperature 305.55 K
[3] = water+[DEA]La w3=0.0500, mean temperature 305.55 K
[4] = water+[DEA]La w3=0.0700, mean temperature 305.55 K
[5] = water+[DEA]La w3=0.1000, mean temperature 305.55 K
[6] = water+[DEA]La w3=0.1500, mean temperature 305.55 K
[7] = water+[DEA]La w3=0.2000, mean temperature 305.55 K
[8] = water+[MEA]La w3=0.0000, mean temperature 305.55 K
[9] = water+[MEA]La w3=0.0200, mean temperature 305.55 K
[10] = water+[MEA]La w3=0.0500, mean temperature 305.55 K
[11] = water+[MEA]La w3=0.0700, mean temperature 305.55 K
[12] = water+[MEA]La w3=0.1000, mean temperature 305.55 K
[13] = water+[MEA]La w3=0.1500, mean temperature 305.55 K
[14] = water+[MEA]La w3=0.2000, mean temperature 305.55 K
[15] = water+[TEA]La w3=0.0000, mean temperature 305.55 K
[16] = water+[TEA]La w3=0.0200, mean temperature 305.55 K
[17] = water+[TEA]La w3=0.0500, mean temperature 305.55 K
[18] = water+[TEA]La w3=0.0700, mean temperature 305.55 K
[19] = water+[TEA]La w3=0.1000, mean temperature 305.55 K
[20] = water+[TEA]La w3=0.1500, mean temperature 305.55 K
[21] = water+[TEA]La w3=0.2000, mean temperature 305.55 K

TMΔHsoln∘ [1]: 9.576 kJ/mol
ΔGsoln∘ [1]: 15.356 kJ/mol
ΔHsoln∘ [1]: 24.933 kJ/mol
ξH [1]: 72.250%
ξTS [1]: 27.750%
TMΔHsoln∘ [2]: 6.015 kJ/mol
ΔGsoln∘ [2]: 14.598 kJ/mol
ΔHsoln∘ [2]: 20.612 kJ/mol
ξH [2]: 77.411%
ξTS [2]: 22.589%
TMΔHsoln∘ [3]: 0.450 kJ/mol
ΔGsoln∘ [3]: 14.221 kJ/mol
ΔHsoln∘ [3]: 14.671 kJ/mol
ξH [3]: 97.024%
ξTS [3]: 2.976%
ΔGsoln∘ [4]: 14.021 kJ/mol
ΔHsoln∘ [4]: 13.237 kJ/mol
ξH [4]: 94.407%
ξTS [4]: 5.593%
TMΔHsoln∘ [5]: 2.841 kJ/mol
ΔGsoln∘ [5]: 13.727 kJ/mol
ΔHsoln∘ [5]: 16.569 kJ/mol
ξH [5]: 85.361%
ξTS [5]: 14.639%
TMΔHsoln∘ [6]: 0.514 kJ/mol
ΔGsoln∘ [6]: 13.528 kJ/mol
ΔHsoln∘ [6]: 14.041 kJ/mol
ξH [6]: 96.472%
ξTS [6]: 3.528%
TMΔHsoln∘ [7]: 1.260 kJ/mol
ΔGsoln∘ [7]: 13.256 kJ/mol
ΔHsoln∘ [7]: 14.515 kJ/mol
ξH [7]: 92.015%
ξTS [7]: 7.985%
TMΔHsoln∘ [8]: 9.576 kJ/mol
ΔGsoln∘ [8]: 15.356 kJ/mol
ΔHsoln∘ [8]: 24.933 kJ/mol
ξH [8]: 72.250%
ξTS [8]: 27.750%
TMΔHsoln∘ [9]: 4.888 kJ/mol
ΔGsoln∘ [9]: 14.395 kJ/mol
ΔHsoln∘ [9]: 19.284 kJ/mol
ξH [9]: 79.777%
ξTS [9]: 20.223%
ΔGsoln∘ [10]: 14.122 kJ/mol
ΔHsoln∘ [10]: 13.991 kJ/mol
ξH [10]: 99.076%
ξTS [10]: 0.924%
ΔGsoln∘ [11]: 13.714 kJ/mol
ΔHsoln∘ [11]: 12.336 kJ/mol
ξH [11]: 89.953%
ξTS [11]: 10.047%
ΔGsoln∘ [12]: 13.447 kJ/mol
ΔHsoln∘ [12]: 13.299 kJ/mol
ξH [12]: 98.898%
ξTS [12]: 1.102%
TMΔHsoln∘ [13]: 1.931 kJ/mol
ΔGsoln∘ [13]: 13.074 kJ/mol
ΔHsoln∘ [13]: 15.005 kJ/mol
ξH [13]: 88.600%
ξTS [13]: 11.400%
TMΔHsoln∘ [14]: 1.225 kJ/mol
ΔGsoln∘ [14]: 12.831 kJ/mol
ΔHsoln∘ [14]: 14.056 kJ/mol
ξH [14]: 91.982%
ξTS [14]: 8.018%
TMΔHsoln∘ [15]: 9.576 kJ/mol
ΔGsoln∘ [15]: 15.356 kJ/mol
ΔHsoln∘ [15]: 24.933 kJ/mol
ξH [15]: 72.250%
ξTS [15]: 27.750%
TMΔHsoln∘ [16]: 6.937 kJ/mol
ΔGsoln∘ [16]: 14.994 kJ/mol
ΔHsoln∘ [16]: 21.931 kJ/mol
ξH [16]: 75.970%
ξTS [16]: 24.030%
TMΔHsoln∘ [17]: 0.819 kJ/mol
ΔGsoln∘ [17]: 14.716 kJ/mol
ΔHsoln∘ [17]: 15.535 kJ/mol
ξH [17]: 94.992%
ξTS [17]: 5.008%
TMΔHsoln∘ [18]: 0.198 kJ/mol
ΔGsoln∘ [18]: 14.402 kJ/mol
ΔHsoln∘ [18]: 14.600 kJ/mol
ξH [18]: 98.659%
ξTS [18]: 1.341%
TMΔHsoln∘ [19]: 3.253 kJ/mol
ΔGsoln∘ [19]: 14.131 kJ/mol
ΔHsoln∘ [19]: 17.384 kJ/mol
ξH [19]: 84.235%
ξTS [19]: 15.765%
TMΔHsoln∘ [20]: 1.400 kJ/mol
ΔGsoln∘ [20]: 13.713 kJ/mol
ΔHsoln∘ [20]: 15.113 kJ/mol
ξH [20]: 91.522%
ξTS [20]: 8.478%
TMΔHsoln∘ [21]: 1.793 kJ/mol
ΔGsoln∘ [21]: 13.449 kJ/mol
ΔHsoln∘ [21]: 15.242 kJ/mol
ξH [21]: 89.476%
ξTS [21]: 10.524%
Structure (SMILES): CC(=O)Nc1ccc(O)cc1 [ACP, Acetaminophen]
